From PMC3209665 (Chemical biology & drug design, 2009)

Test: Solubility in ITC buffer
Format: physicochemical
Conditions: 10 mM sodium acetate, pH 5.0, 2% DMSO

KNI-10006
solubility: limited solubility
